Results published in patent publication US20210053957A1, “HERBICIDAL COMPOUNDS” (SYNGENTA PARTICIPATIONS AG, priority 2018, published 2021).

Experiments:
Test in all cases: Post-emergence efficacy, glasshouse spray test
Type in all cases: in vivo
Lolium perenne (LOLPE) = conditions: Application Rate 500 g/Ha, evaluated after 13 days; for pest or weed control at 500 g/ha: Lolium perenne, post-emergence, 312 h, read-out: Control of weed species after post-emergence application, LOLPE (100=total damage to plant; 0=no damage to plant)
Procedure, shortened: (§1)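 Spray solution: compound dissolved in acetone and IF50 emulsifier/solvent mix to 50 g/l stock, then diluted to test concentration in 0.25% or 1% sodium lauryl ether sulphate + 1% ammonium sulphate. Applied post-emergence to 14-day plants; injury scored 0–100 after 13 days.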

Setaia fabei (SETFA) = conditions: Application Rate 500 g/Ha, evaluated after 13 days; for pest or weed control at 500 g/ha: Setaria faberi, post-emergence, 312 h, read-out: Control of weed species after post-emergence application, SETFA (100=total damage to plant; 0=no damage to plant)
Procedure, shortened: as §1

[1] = system: Euphorbia heterophylla (EPHHL); conditions: Application Rate 500 g/Ha, evaluated after 13 days; for pest or weed control at 500 g/ha: Euphorbia heterophylla, post-emergence, 312 h, read-out: Control of weed species after post-emergence application, EPHHL (100=total damage to plant; 0=no damage to plant)
Procedure, shortened: as §1

[2] = system: Ipomoea hederacea (IPOHE); conditions: Application Rate 500 g/Ha, evaluated after 13 days; for pest or weed control at 500 g/ha: Ipomoea hederacea, post-emergence, 312 h, read-out: Control of weed species after post-emergence application, IPOHE (100=total damage to plant; 0=no damage to plant)
Procedure, shortened: as §1

[3] = system: Chenopodium album (CHEAL); conditions: Application Rate 500 g/Ha, evaluated after 13 days; for pest or weed control at 500 g/ha: Chenopodium album, post-emergence, 312 h, read-out: Control of weed species after post-emergence application, CHEAL (100=total damage to plant; 0=no damage to plant)
Procedure, shortened: as §1

[4] = system: Digitaria sanguinalis (DIGSA); conditions: Application Rate 500 g/Ha, evaluated after 13 days; for pest or weed control at 500 g/ha: Digitaria sanguinalis, post-emergence, 312 h, read-out: Control of weed species after post-emergence application, DIGSA (100=total damage to plant; 0=no damage to plant)
Procedure, shortened: as §1

Eleusine indica (ELEIN) = conditions: Application Rate 500 g/Ha, evaluated after 13 days; for pest or weed control at 500 g/ha: Eleusine indica, post-emergence, 312 h, read-out: Control of weed species after post-emergence application, ELEIN (100=total damage to plant; 0=no damage to plant)
Procedure, shortened: as §1

[5] = system: Amaranthus palmeri (AMAPA); conditions: Application Rate 500 g/Ha, evaluated after 13 days; for pest or weed control at 500 g/ha: Amaranthus palmeri, post-emergence, 312 h, read-out: Control of weed species after post-emergence application, AMAPA (100=total damage to plant; 0=no damage to plant)
Procedure, shortened: as §1

[6] = system: Echinochloa crus-galli (ECHCG); conditions: Application Rate 500 g/Ha, evaluated after 13 days; for pest or weed control at 500 g/ha: Echinochloa crus-galli, post-emergence, 312 h, read-out: Control of weed species after post-emergence application, ECHCG (100=total damage to plant; 0=no damage to plant)
Procedure, shortened: as §1

SMILES | pest or weed control at 500 g/ha (Lolium perenne (LOLPE)) [%] | pest or weed control at 500 g/ha (Setaia fabei (SETFA)) [%] | pest or weed control at 500 g/ha [1] [%] | pest or weed control at 500 g/ha [2] [%] | pest or weed control at 500 g/ha [3] [%] | pest or weed control at 500 g/ha [4] [%] | pest or weed control at 500 g/ha (Eleusine indica (ELEIN)) [%] | pest or weed control at 500 g/ha [5] [%] | pest or weed control at 500 g/ha [6] [%] | Control of weed species after post-emergence application, LOLPE (100=total damage to plant; 0=no damage to plant) (Lolium perenne (LOLPE)) | Control of weed species after post-emergence application, SETFA (100=total damage to plant; 0=no damage to plant) (Setaia fabei (SETFA)) | Control of weed species after post-emergence application, EPHHL (100=total damage to plant; 0=no damage to plant) [1] | Control of weed species after post-emergence application, IPOHE (100=total damage to plant; 0=no damage to plant) [2] | Control of weed species after post-emergence application, CHEAL (100=total damage to plant; 0=no damage to plant) [3] | Control of weed species after post-emergence application, DIGSA (100=total damage to plant; 0=no damage to plant) [4] | Control of weed species after post-emergence application, ELEIN (100=total damage to plant; 0=no damage to plant) (Eleusine indica (ELEIN)) | Control of weed species after post-emergence application, AMAPA (100=total damage to plant; 0=no damage to plant) [5] | Control of weed species after post-emergence application, ECHCG (100=total damage to plant; 0=no damage to plant) [6]
O=C(O)CC[n+]1ccc(-c2cnns2)cn1 [Compound A138] | 0 | 30 | 100 | 70 | 40 | 60 | 70 | 90 | 40 | – | – | – | – | – | – | – | – | –
O=C(O)C[n+]1ccc(-c2nccs2)cn1 [Compound A123] | 10 | 10 | 30 | 10 | 0 | 20 | 20 | 0 | 10 | – | – | – | – | – | – | – | – | –
Cn1cnc(-c2cc[n+](CCOS(=O)(=O)[O-])nc2)n1 [Compound A118] | 40 | 90 | 70 | 30 | 30 | 90 | 70 | 50 | 90 | – | – | – | – | – | – | – | – | –
COP(=O)(O)CC[n+]1ccc(-c2ncco2)cn1 [Compound A106] | 0 | 50 | 60 | 20 | 0 | 80 | 20 | 10 | 40 | – | – | – | – | – | – | – | – | –
CC(C)(C)COS(=O)(=O)CC[n+]1ccc(-c2cocn2)cn1 [Compound A21, 2,2-dimethylpropyl 2-(4-oxazol-4-ylpyridazin-1-ium-1-yl)ethanesulfonate; 2,2,2-trifluoroacetate] | 0 | 10 | 40 | 10 | 40 | 10 | 10 | 10 | 10 | – | – | – | – | – | – | – | – | –
COC(=O)c1cccc(C[n+]2ccc(-c3ncco3)cn2)c1 [Compound A92] | 0 | 0 | 20 | 10 | 10 | 20 | 10 | 10 | 0 | – | – | – | – | – | – | – | – | –
Cc1coc(-c2cc[n+](CCOS(=O)(=O)[O-])nc2)n1 [Compound A134] | 40 | 70 | 70 | 50 | 30 | 60 | 80 | 90 | 70 | – | – | – | – | – | – | – | – | –
Cn1cnc(-c2cc[n+](CCS(=O)(=O)[O-])nc2)n1 [Compound A39] | 70 | 90 | 90 | 80 | 90 | 90 | 80 | 90 | 80 | – | – | – | – | – | – | – | – | –
Cn1nc(-c2cc[n+](CCS(=O)(=O)[O-])nc2)cc1C(F)(F)F [Compound A29] | 20 | 20 | 20 | 20 | 50 | 30 | 30 | 20 | 20 | – | – | – | – | – | – | – | – | –
O=S(=O)([O-])CC(O)C[n+]1ccc(-c2ncco2)cn1 (stereo not drawn) [Compound A84] | 50 | 50 | 90 | 40 | 90 | 70 | 70 | 100 | 70 | – | – | – | – | – | – | – | – | –
COC(=O)C[n+]1ccc(-c2ncn(C)n2)cn1 [Compound A87] | 0 | 40 | 80 | 10 | 20 | 90 | 80 | 80 | 50 | – | – | – | – | – | – | – | – | –
COC(=O)C[n+]1ccc(-c2nccs2)cn1 [Compound A120] | 0 | 60 | 70 | 10 | 50 | 80 | 90 | 100 | 70 | – | – | – | – | – | – | – | – | –
O=C(O)c1cccc(C[n+]2ccc(-c3ncco3)cn2)c1 [Compound A104] | 10 | 60 | 30 | 10 | 20 | 50 | 20 | 40 | 50 | – | – | – | – | – | – | – | – | –
COP(=O)(CCC[n+]1ccc(-c2ncco2)cn1)OC.[Br-] [Compound A76] | – | – | – | – | – | – | – | – | – | 30 | 40 | 40 | 30 | 20 | 60 | 70 | 30 | 30
N[C@@H](CC[n+]1ccc(-c2ncco2)cn1)C(=O)O [Compound A110] | 20 | 80 | 40 | 20 | 80 | 90 | 100 | 90 | 100 | – | – | – | – | – | – | – | – | –
O=S(=O)([O-])OCC[n+]1ccc(-c2ncco2)cn1 [Compound A67] | 60 | 80 | 80 | 80 | 80 | 90 | 90 | 100 | 70 | – | – | – | – | – | – | – | – | –
CC(C(=O)O)[n+]1ccc(-c2ncco2)cn1 (stereo not drawn) [Compound A90] | 0 | 10 | 20 | 10 | 20 | 10 | 10 | 20 | 10 | – | – | – | – | – | – | – | – | –
O=C(O)CC[n+]1ccc(-c2csnn2)cn1 [Compound A139, 3-[4-(thiadiazol-4-yl)pyridazin-1-ium-1-yl]propanoic acid 2,2,2-trifluoroacetate] | 10 | 60 | 100 | 60 | 70 | 70 | 70 | 80 | 60 | – | – | – | – | – | – | – | – | –
